# Experimental data from PMC12844208, “Screening for Peptides to Bind and Functionally Inhibit SARS-CoV-2 Fusion Peptide Using Mirrored Combinatorial Phage Display and Human Proteomic Phage Display” (Molecules, 2026).
# Tested on: spike-FP12 peptide
# Type: binding, SARS-CoV-2
sequence,measurement,value
GPDRNFRLSEHRQALA,% Count,6.59%
same,Count (read counts of phage display binding to FP),3393
TLPFGDVEYVDLDAFL,% Count,0.29%
same,Count (read counts of phage display binding to FP),148
DTLLPTQQAEVLHPVV,% Count,2.70%
same,Count (read counts of phage display binding to FP),1392
NFRLSEHRQALAAAKH,% Count,0.00%
same,Count (read counts of phage display binding to FP),2
GSSYAEMEVMKMIMTL,% Count,0.06%
same,Count (read counts of phage display binding to FP),31
HPNIKRVTPQRKVFRS,% Count,0.01%
same,Count (read counts of phage display binding to FP),3
QLEHVKLFMQDLSAML,% Count,9.07%
same,Count (read counts of phage display binding to FP),4673
SFQYADIYEQMMLTGL,% Count,0.01%
same,Count (read counts of phage display binding to FP),5
